Test results reported in patent US20230296491A1, “DEVICE AND METHOD FOR DETERMINING A MECHANICAL PROPERTY OF A PARTICLE” (priority 2020, published 2023).

Key:
NIH 3T3 fibroblast cells [1] = experiment: Hydrodynamic stretching deformability of chemically treated NIH 3T3 fibroblasts in the microfluidic system; type: cell-based; details: flow rate 10 μl/min, 2 wt % PEO; for mean deformability in the first frame: first frame of the recording cycle (before stretching); for deformability (mean, aspect ratio a/b of the deformed cell): last (15th) frame, CB 150 μM for two hours, fixation 4% formaldehyde for 8 mins
Description: On the other hand, an electrical sensing zone is introduced for on-demand single cell imaging. Three electrodes of 20 μm in width, 20 μm intervals are placed before the flow splitting junction, an input voltage of 0.5 V at 5 MHz is applied to the middle electrode and the differential current (Idifferential) is calculated from the two-sided electrodes. The differential configuration can cancel out electrical drifting caused by environmental fluctuation (i.e. flow, temperature, conductivity and pH) and achieve a higher signal-to-noise ratio. As the cell passes through the sensing region, it replaces the conductive medium and causes a change in the electrical current. By that, a pair of opposite peaks is transmitted into an impedance spectroscope. When the peak reaches the trigger level, a trigger signal is generated and fed to the camera. […] Next, for example at a flow rate of 10 μl/min, the camera starts to record 15 frames at a rate of 2,000 frames per second, with an exposure time of 50 μs. The first frame in a recording cycle is used to extract the cell diameter. At this point, the cell remains spherical because it starts to decelerate and is subject to minor stress. In one record cycle, the cell approaches the splitting junction, reaches the channel wall and migrates along the wall for a time span, ensuring the maximum strain is captured at the 15th frame (FIG. 5a). Its aspect ratio evaluates the cell deformability as
where a and b are the length of the long axis and the short axis of the deformed cell, respectively.
(§1) Cytochalasin B (Sigma-Aldrich) treated NIH 3T3 were prepared by incubating cells in 150 μM Cytochalasin B at 37° C. for two hours. After treatment with chemical reagents, cells were washed, centrifuged and resuspended in 2 wt % PEO solution. The viscoelastic solution was prepared by dissolving PEO (Mw=600 kDa, Sigma-Aldrich) powder into DPBS (Thermo Fisher Scientific) with a concentration of 2 wt %.
Samples were continuously introduced into the microfluidic devices using a syringe pump (KD Scientific, Holliston, MA) at a range of flow rates. Simultaneously, the electrical current was received by an impedance spectroscope (HF2IS, Zurich Instruments) and analyzed by a real-time program to send out a trigger signal whenever there was a cell passing through the electrical sensing region. The triggering signal was received by a camera (Photron Inc., San Diego, CA, USA), which started to record 15 frames at a 2,000 frame rate with an exposure time of 50 μs (at a flow rate of 10 μl/min). After the event triggered imaging process was completed, the video was processed offline using a custom-built Python program. […]

NIH 3T3 fibroblast cells [2] = experiment: Fluorescence imaging of actin in live NIH 3T3 cell before and after CB treatment; type: cell-based; details: NIH 3T3, fluorescence images (actin)
Description: (a) Representative fluorescence images (actin, red) of a live cell before (top) and after CB treatment (bottom).
as §1
To test the sensitivity of our system for cellular mechanical phenotyping, we compared the deformability of normal and Cytochalasin B (CB) treated two hours NIH 3T3 fibroblasts. […] In addition, we measured the deformability at a wide flow rate range of 1-30 μl/min. […] This flow rate was then applied to analyze the deformability difference. Furthermore, fixed cells were measured as control of undeformed cells.

| Structure (SMILES) | mean deformability in the first frame (NIH 3T3 fibroblast cells [1]) | deformability (mean, aspect ratio a/b of the deformed cell) (NIH 3T3 fibroblast cells [1]) | effect on intracellular F-actin (FIG. 8a) (NIH 3T3 fibroblast cells [2]) |
| --- | --- | --- | --- |
| C=O [formaldehyde] | 1.12±0.06 | 1.29±0.11 |  |
| C=C1[C@@H](C)[C@H]2[C@H](Cc3ccccc3)NC(=O)[C@]23OC(=O)/C=C/[C@H](O)CCC[C@@H](C)C/C=C/[C@H]3[C@@H]1O [CB, Cytochalasin B] | 1.16±0.12 | 1.87±0.23 | intracellular F-actin depolymerization |
